Laboratory results from paper PMC8471592, “Characterization of Conserved and Promiscuous Human Rhinovirus CD4 T Cell Epitopes” (Cells, 2021).
pIC50: −log10 of the molar value. Ends that are not written are not given here.

Tests used:
HLA-DRB1*09:01 = HLA-DRB1*09:01 (Homo sapiens, UniProt P01903+P01911, A100R/A103E/D57H/D86V/F55Y/F60I/F76Y/I96F/K127E/L162R/M171V/P40D/Q125H/Q99R/R33Q/R42F/S133A/S66N/T210M/V115G/W38K/Y107V/Y59G/Y89S); test: Competitive inhibition HLA II binding assay; details: competition with radiolabeled probe peptide, purified HLA II, 0.3 nM–30 µM, 2-day incubation; mean of three or more independent assays
HLA-DRB1*11:04 = HLA-DRB1*11:04 (Homo sapiens, UniProt P01903+P01911, A100R/A169T/A87E/I96F/K41T/L162R/M171V/P40S/Q125H/Q178H/Q39Y/Q99D/R42S/S66Y/T262R/W38E); test: Competitive inhibition HLA II binding assay; details: competition with radiolabeled probe peptide, purified HLA II, 0.3 nM–30 µM, 2-day incubation; mean of three or more independent assays
HLA-DRB1*04:04 = HLA-DRB1*04:04 (Homo sapiens, UniProt P01903+P01911, A100R/A169T/F76Y/I96L/K127E/L162R/M171V/N62H/P40V/Q125Y/R42H/S133A/S149N/S66Y/V209L/W38E); test: Competitive inhibition HLA II binding assay; details: competition with radiolabeled probe peptide, purified HLA II, 0.3 nM–30 µM, 2-day incubation; mean of three or more independent assays
HLA-DRB1*08:02 = HLA-DRB1*08:02 (Homo sapiens, UniProt P01903+P01911, A100R/A103L/A169T/F76Y/H45Y/I96F/K41T/L162R/M171V/P40S/Q125H/Q178H/Q39Y/Q99D/R218S/R42G/S66Y/V115G/W38E); test: Competitive inhibition HLA II binding assay; details: competition with radiolabeled probe peptide, purified HLA II, 0.3 nM–30 µM, 2-day incubation; mean of three or more independent assays
HLA-DRB1*07:01 = HLA-DRB1*07:01 (Homo sapiens, UniProt P01903+P01911, A100R/A102G/A103Q/D57E/D86V/E43K/F76Y/K127E/L162R/M171V/P40G/Q125H/Q99D/R33Q/R42Y/R54Q/S133A/S66F/T210M/V115G/Y107V/Y59L/Y89S); test: Competitive inhibition HLA II binding assay; details: competition with radiolabeled probe peptide, purified HLA II, 0.3 nM–30 µM, 2-day incubation; mean of three or more independent assays
HLA-DRB1*13:02 = HLA-DRB1*13:02 (Homo sapiens, UniProt P01903+P01911, A100E/A169T/K41T/L162R/M171V/P40S/Q125H/Q178H/Q39Y/Q99D/R42S/S66N/T262R/V115G/W38E/Y61H); test: Competitive inhibition HLA II binding assay; details: competition with radiolabeled probe peptide, purified HLA II, 0.3 nM–30 µM, 2-day incubation; mean of three or more independent assays
[1] = tested on: PBMCs from three HLA II-typed donors; test: IFNγ-ELISPOT assay; format: cell-based, human; details: 10 μM peptide, 1 × 10^5 PBMCs, 24 h, triplicate; positive if >60 SFC/10^6 PBMCs after background subtraction
Procedure: Peptide-specific IFNγ production by PBMCs from HLA II-typed donors was detected by standard IFNγ ELISPOT assays. Briefly, 96-well PVDF plates (Millipore, Darmstadt, Germany) were coated with anti-IFNγ (1-D1K mAb, Mabtech, Stockholm, Sweden) and 1 × 10^5 PBMCs were pleated with RPMI 1640 (Gibco, Waltham, MA, USA), supplemented with 10% of fetal bovine serum (Gibco, Waltham, MA, USA), 100 µg/mL streptomycin, 100 U/mL penicillin, and 2 mM L-glutamine (Lonza, Basel, Switzerland). Individual RV peptides were added at 10 μM. Plates were incubated at 37 °C and 5% CO2 and, after 24 h, were processed according to the manufacturer’s instructions. PBMCs incubated with 10 μg/mL phytohemagglutinin (PHA) or without any stimuli were used as positive and background controls, respectively. The assay was run in triplicate for each individual peptide. The number of IFNγ-secreting cells (spot forming cells (SFCs)) was determined with an ELISPOT reader (ImmunoSpot 5.0, CTL Analyzers, Shaker Heights, OH, USA).

HLA-DRB1*11:01 = HLA-DRB1*11:01 (Homo sapiens, UniProt P01903+P01911, A100R/A169T/A87E/I96F/K41T/L162R/M171V/P40S/Q125H/Q178H/Q39Y/Q99D/R42S/S66Y/T262R/V115G/W38E); test: Competitive inhibition HLA II binding assay; details: competition with radiolabeled probe peptide, purified HLA II, 0.3 nM–30 µM, 2-day incubation; mean of three or more independent assays
HLA-DRB1*03:01 = HLA-DRB1*03:01 (Homo sapiens, UniProt P01903+P01911, A100K/A102G/A103R/A169T/F55Y/I96L/K41T/L162R/M171V/P40S/Q125H/Q178H/Q39Y/R42S/S66N/T106N/T262R/W38E/Y61H); test: Competitive inhibition HLA II binding assay; details: competition with radiolabeled probe peptide, purified HLA II, 0.3 nM–30 µM, 2-day incubation; mean of three or more independent assays

Row | Molecule | pIC50 (HLA-DRB1*09:01) | pIC50 (HLA-DRB1*11:04) | pIC50 (HLA-DRB1*04:04) | pIC50 (HLA-DRB1*08:02) | pIC50 (HLA-DRB1*07:01) | pIC50 (HLA-DRB1*13:02) | IFNγ recall response in ELISPOT [1] | pIC50 (HLA-DRB1*11:01) | pIC50 (HLA-DRB1*03:01)
1 | CC[C@H](C)[C@H](NC(=O)[C@@H](NC(=O)[C@H](CO)NC(=O)[C@@H](N)CC(=O)O)[C@@H](C)O)C(=O)N[C@H](C(=O)N[C@@H](CO)C(=O)N[C@@H](CCC(N)=O)C(=O)N[C@@H](CC(=O)O)C(=O)N[C@H](C(=O)N[C@@H](C)C(=O)N[C@@H](CC(N)=O)C(=O)N[C@@H](C)C(=O)N[C@H](C(=O)N[C@H](C(=O)NCC(=O)N[C@@H](Cc1ccc(O)cc1)C(=O)NCC(=O)N[C@H](C(=O)O)C(C)C)C(C)C)C(C)C)C(C)C)[C@@H](C)O [RVA89–106] | 5.92 | 5.23 | 7.72 | 5.29 | 6.06 | 5.18 |  |  | 
2 | YEIQESEYYPKHIQY [RVC945–959, RV C 2A peptide, position 945–959] |  |  |  |  |  |  | able to stimulate IFNγ production by T cells in at least one donor |  | 
3 | INLRTNNSSTIVVPYIN [RVC258–274] | 6.08 |  | 5.46 |  | 6.39 | 7.40 |  |  | 
4 | CC[C@H](C)[C@H](NC(=O)CNC(=O)[C@H](CCCCN)NC(=O)[C@H](CCC(=O)O)NC(=O)[C@H](CC(C)C)NC(=O)[C@@H](NC(=O)[C@H](CC(=O)O)NC(=O)[C@H](CCCCN)NC(=O)[C@@H](N)C(C)C)C(C)C)C(=O)N1CCC[C@H]1C(=O)N[C@H](C(=O)N[C@@H](CC(C)C)C(=O)N[C@@H](CCC(N)=O)C(=O)N[C@@H](CO)C(=O)N1CCC[C@H]1C(=O)N[C@H](C(=O)N[C@H](C(=O)N[C@@H](CCC(=O)O)C(=O)O)C(C)C)[C@@H](C)O)[C@@H](C)O [RVA57–74] | 5.02 |  | 5.39 |  |  |  |  |  | 
5 | DLPYVTYLKDELR [RVC1835–1847] |  |  | 6.11 | 5.59 |  |  |  |  | 
6 | KEKFRDIRRFIP [RVC1582–1592] | 5.56 | 7.00 | 5.06 | 7.36 | 4.89 |  |  | 7.48 | 
7 | YGDDVIFSY [RVA2029–2037, reference compound] |  |  |  |  |  |  | not immunogenic in IFNγ ELISPOT assays |  | 
8 | GLEPLDLNTSAGFPYV [RVC1791–1806] |  |  | 5.96 |  | 5.92 | 7.21 |  |  | 5.08
9 | CC(C)C[C@H](NC(=O)[C@H](Cc1ccc(O)cc1)NC(=O)[C@H](Cc1c[nH]cn1)NC(=O)[C@@H]1CCCN1C(=O)[C@H](Cc1c[nH]c2ccccc12)NC(=O)[C@@H](NC(=O)CNC(=O)[C@H](Cc1ccc(O)cc1)NC(=O)CNC(=O)[C@@H](NC(=O)[C@@H](NC(=O)[C@H](C)NC(=O)[C@H](CC(N)=O)NC(=O)[C@H](C)NC(=O)[C@@H](N)C(C)C)C(C)C)C(C)C)C(C)C)C(=O)N[C@H](C(=O)N1CCC[C@H]1C(=O)N[C@@H](CCC(=O)O)C(=O)O)[C@@H](C)O [RVA97–114] | 4.94 | 4.71 | 5.25 | 6.34 | 5.89 | 4.94 |  | 5.96 | 
